From US20250302039A1, “USE OF N-SUBSTITUTED PYRROLIDONES TO PROMOTE THE PENETRATION OF AGROCHEMICAL ACTIVE AGENTS” (priority 2016, published 2025) come the findings set out here.

What all share (assay type): physicochemical
Data set [1] is described as follows: Microscopy studies: crystallization behavior after 18 hours of drying. The conditions noted are these: 1 g/L; 1 μL on silanized glass slide; 18 hours of drying at 25° C., 53% relative air humidity; 400× magnification. The source says: The following solutions 1) to 6) were produced:
Solution of 1 g of rynaxypyr in one liter of a mixture of acetone and distilled water at a weight ratio of acetone:distilled water of 30:70.
Solution of 1 g of rynaxypyr in one liter of a mixture of N-(n-butyl)-2-pyrrolidone and distilled water at a weight ratio of N-(n-butyl)-2-pyrrolidone:distilled water of 30:70.
Solution of 1 g of emamectin benzoate in one liter of a mixture of acetone and distilled water at a weight ratio of acetone:distilled water of 30:70.
Solution of 1 g of emamectin benzoate in one liter of a mixture of N-(n-butyl)-2-pyrrolidone and distilled water at a weight ratio of N-(n-butyl)-2-pyrrolidone:distilled water of 30:70.
Solution of 1 g of abamectin in one liter of a mixture of acetone and distilled water at a weight ratio of acetone:distilled water of 30:70.
Solution of 1 g of abamectin in one liter of a mixture of N-(n-butyl)-2-pyrrolidone and distilled water at a weight ratio of N-(n-butyl)-2-pyrrolidone:distilled water of 30:70.
The procedure as described hereinafter was followed with solutions 1) to 6) (see steps A) to C)): • A) 1 μL of the above-described solutions 1) to 6) in each case was applied to silanized glass microscope slides. • B) The solutions were left to stand on the microscope slides at a temperature of 25° C. and 53% relative air humidity over 18 hours, in the course of which drying took place. • C) Thereafter, the microscope slides were assessed and photos were taken at the original edge of the droplets with 400-fold magnification.
The photos for the active agrochemical ingredient abamectin are shown in FIG. 2A and FIG. 2B, those for the active agrochemical ingredient rynaxapyr in FIG. 3A and FIG. 3B, and those for the active agrochemical ingredient emamectin benzoate in FIG. 4A and FIG. 4B.

Data set [2] is described as follows: Miscibility of N-(n-butyl)-2-pyrrolidone with solvents. The conditions noted are these: with water, propylene glycol, polyethylene glycol, dimethylamide, Solvesso® 200 ND, alkylated vegetable oil or mineral oils. The source says:
In addition, the N-substituted pyrrolidones of the formula (I) can also be combined advantageously with various water-immiscible solvents and may serve as cosolvents in solvent-containing formulations, for example in emulsion concentrates (EC), oil dispersions (OD), suspoemulsions (SE) and microemulsions (ME).

Data set [3] in a line: Solutions of active ingredients in N-(n-butyl)-2-pyrrolidone. Conditions: solvent N-(n-butyl)-2-pyrrolidone; based on the total weight of the solution.

As for `CNC(=O)c1cc(Cl)cc(C)c1NC(=O)c1cc(Br)nn1-c1ncccc1Cl` [rynaxypyr], in data set [1], the “crystallization behavior in N-(n-butyl)-2-pyrrolidone/water (30:70) solution” value is listed as “remaining dissolved” and the “crystallization behavior in acetone/water (30:70) solution” value was “crystallized out”. In the case of `CCCCN1CCCC1=O` [N-(n-Butyl)-2-pyrrolidone, N-(n-butyl)-2-pyrrolidone], the miscibility with solvents result in data set [2] was “miscible in all ratios”.

On to `OC(Cc1ccccc1Cl)(Cn1nc[nH]c1=S)C1(Cl)CC1` (centres unmarked) [prothioconazole], for which, in data set [3], the “amount of active ingredient in solutions prepared with N-(n-butyl)-2-pyrrolidone” value is on record as “greater than 35 % by weight”. On to emamectin benzoate, for which, in data set [1], the “crystallization behavior in N-(n-butyl)-2-pyrrolidone/water (30:70) solution” value is reported as “remaining dissolved” and the “crystallization behavior in acetone/water (30:70) solution” value is given as “crystallized out”.

Consider abamectin, for which, in data set [1], the “crystallization behavior in N-(n-butyl)-2-pyrrolidone/water (30:70) solution” value is reported as “remaining dissolved” and the “crystallization behavior in acetone/water (30:70) solution” value was “crystallized out”.
